Measurements published in PMC7672424 (Nucleic Acids Research, 2020).

Key:
[1] = system: VEGF (DNA, G4) GGGAGGGTTGGGGTGGG; experiment: ligand fluorescence enhancement; settings: 100 mM K+ (KCl) plus potassium phosphate; 10 mM K2HPO4/KH2PO4 pH 7.0; 3 µM compound, 4 µM DNA; enhancement below 3-fold
[2] = system: c-KIT2 (DNA, G4) GGGCGGGCGCGAGGGAGGGG; experiment: ligand fluorescence enhancement; settings: 100 mM K+ (KCl) plus potassium phosphate; 10 mM K2HPO4/KH2PO4 pH 7.0; 3 µM compound, 4 µM DNA; enhancement below 3-fold
[3] = system: TTA45; experiment: FRET melting assay, stabilization of TTA45; format: binding, human; settings: 0.5 µM TTA45, 10 mM K2HPO4/KH2PO4, 100 mM KCl, pH 7.0
Method: Based on the conventional G-quadruplex ligand design ([46]), ∼400 compounds were selected from Chinese National Compound library of Peking University (PKU-CNCL). These compounds were evaluated for their ability to bind to TTA45 by Fluorescence Resonance Energy Transfer (FRET) assay (Supplementary Tables S1 and S2) ([47]). […] Compounds 21-38 were purchased to study their binding with TTA45 by FRET (Supplementary Table S3). […] page 4: Table S2. Stabilization of TTA45 as determined by FRET assays (continued). Compounds Structures ΔTm/°C Compounds Structures ΔTm/°C 23 10.3 25 14.6 […] OH 24 […] KCl, pH 7.0) was determined by FRET procedure, and Tm/°C were derived by their difference. The concentration of compounds 21-26 were 20 μM , and other compounds were 50 μM. FRET assay was carried out on the Real-Time PCR 3.2 machine (Analytik Jena, Germany). The total reaction volume was 20 μL with 0.5 μM of oligonucleotide labelled with FAM at the 3' end and TAMRA at 5' end in 10 mM K2HPO4/KH2PO4 (pH 7.0) containing 100 mM KCl. […] Then compounds with various concentrations were added into the DNA samples.

[4] = system: dimeric G-quadruplexes (TTA45); experiment: Fluorescence response of BMPQ-1 to DNA; format: binding, human; settings: 3 μM BMPQ-1, 2 μM TTA45, λex = 395 nm
Method: Figure 1. (A) Structure of BMPQ-1. (B) Fluorescence spectra of BMPQ-1 at λex = 395 nm in the absence or presence of dimeric G-quadruplexes (TTA45), monomeric G-quadruplexes (c-KIT1, c-KIT2, c-MYCPu22, TTA, VEGF, TBA), trinucleotide DNA (CGG12), duplex DNA (19AT) and single-stranded DNA (dT30). The concentration of BMPQ-1 was 3 μM. The concentration of TTA45 was 2 μM and DNAs with other structures were 4 μM. (C) Fluorescence spectra of 6 μM BMPQ-1 at λex = 395 nm in the absence or presence of 2 μM telomeric G-quadruplexes. Oligonucleotide samples were prepared in solution with 10 mM K2HPO4/KH2PO4, pH 7.0, 100 mM KCl. (D) Effect of BMPQ-1 on the CD spectra of 10 μM TTA45 in 10 mM Tris-HCl buffer (pH 7.4) containing 100 mM KCl.
G-quadruplex forming oligonucleotides were annealed in the buffer (10 mM K2HPO4/KH2PO4 pH 7.0, 100 mM KCl) by heating to 95°C for 5 min, followed by gradual cooling to room temperature. Fluorescence spectra were detected by RF-5301PC spectrofluorophotometer (Shimadzu, Japan) at room temperature. The spectra were recorded with 5 nm excitation and emission slit widths. […] For the fluorescence measurements between BMPQ-1 and different DNA sequences, the final concentrations of multimeric G-quadruplex forming oligonucleotides were 2 μM and other DNA oligonucleotides were 4 μM.

[5] = system: TTA45; experiment: CD melting, DNA stabilization; format: binding, human; settings: 5 µM DNA, 20 µM compound, 10 mM Tris-HCl, 50 mM KCl, pH 7.4
From the text: Compounds Structures IC /µM m

[6] = system: c-MYC Pu22 (DNA, G4) TGAGGGTGGGTAGGGTGGGTAA; experiment: ligand fluorescence enhancement; settings: 100 mM K+ (KCl) plus potassium phosphate; 10 mM K2HPO4/KH2PO4 pH 7.0; 3 µM compound, 4 µM DNA; enhancement below 3-fold
[7] = system: TTA (DNA, G4) GGGTTAGGGTTAGGGTTAGGG; experiment: CD melting; settings: 50 mM K+; 10 mM Tris-HCl pH 7.4; 5 µM DNA, 20 µM compound
[8] = system: human normal liver cells (HL-7702); experiment: Cell cytotoxicity assay (CCK8); format: cell-based; settings: L02, CCK8, 48 h treatment
Method: The cell growth effect of BMPQ-1 against different cell lines were tested via measuring the quantity of living cells using the Cell Counting Kit-8 (CCK8) (DOJINDO, Japan) according to the instruction. Cells were seeded in a 96-well plate (5 × 10^3 cells/well) and grown for 24 h for attachment. Then the cells were treated with various concentrations of BMPQ-1 and incubated at 37°C with 5% CO2 for 48 h. After incubation, the old medium was discarded followed by adding fresh medium containing 10% FBS in DMEM. Then 100 μl CCK-8 (10% in grow medium) was added into each well, and the cells were further incubated for 1 h. The optical density (OD) was detected at 450 nm by an automated microplate reader (Bio-Rad). The IC50 values were derived from the curves of the mean percentage of survival against the drug concentration. All the experiments were performed in triplicate.
A Cell Counting Kit-8 (CCK8) (DOJINDO, Japan) was employed to evaluate the cytotoxicity of BMPQ-1 on human alveolar basal epithelial cancer cell line (A549), human hepatocellular carcinoma cancer cell line (HepG2), human gastric cancer cell line (MGC-803), human colon adenocarcinoma (HT29), human normal liver Cells (HL-7702).

[9] = system: c-KIT1; experiment: CD melting, DNA stabilization; format: binding; settings: 5 µM DNA, 20 µM BMPQ-1, 10 mM Tris-HCl, 50 mM KCl, pH 7.4
Method: (§1) CD studies were performed on a Chirascan circular dichroism spectrophotometer (Jasco, Easton, MD, USA). A quartz cuvette with a 1 mm path length was used to record the spectra over a wavelength range of 220–320 nm with a 1 nm bandwidth. All the samples were prepared in buffer containing 10 mM Tris–HCl pH 7.4, 100 mM KCl. To ensure the concentrations of G-quadruplex units to be 20 μM, multiple G-quadruplexes forming oligonucleotides with different concentrations were used (TTA (G1) 20 μM, TTA45 (G2) 10 μM, TTA69 (G3) 6.67 μM, TTA93 (G4) 5 μM, TTA117 (G5) 4 μM, TTA141 (G6) 3.33 μM). The DNA samples were heated at 95°C for 5 min and cooled down slowly to room temperature. 20, 40 and 60 μM BMPQ-1 were mixed with DNAs separately. Melting curves were measured at 295 nm and the range of temperature was 4–95°C.

[10] = system: c-KIT1 (DNA, G4) AGGGAGGGCGCTGGGAGGAGGG; experiment: CD melting; settings: 50 mM K+; 10 mM Tris-HCl pH 7.4; 5 µM DNA, 20 µM compound
[11] = system: TTA51/T3 (DNA, G4) GGGTTAGGGTTAGGGTTAGGGTTATTATTAGGGTTAGGGTTAGGGTTAGGG; experiment: fluorescence titration; settings: 100 mM K+ (KCl) plus potassium phosphate; 10 mM K2HPO4/KH2PO4 pH 7.0; 3 µM compound, DNA 0-10 µM; weaker than TTA45
[12] = system: TBA; experiment: CD melting, DNA stabilization; format: binding; settings: 5 µM DNA, 20 µM BMPQ-1, 10 mM Tris-HCl, 50 mM KCl, pH 7.4
Method: as §1

With `Cc1ccc(Cn2cc3c(-c4ccc5c(c4)OCO5)nnc-3c3cc4c(cc32)OCO4)cc1` [BMPQ-1] the binding [1] was “weak”, the binding [2] was “weak” and the “ΔTm/°C, TTA45 stabilization by FRET (Table S3)” value ([3]; 20 µM compounds) was 16.09 ± 1.79 °C. For the same compound, the “ΔTm/°C, stabilization of TTA45 by FRET (Table S2)” value ([3]; compounds 21-26 20 µM) was 16.1 °C, the “fluorescence increase at 521 nm” value [4] was 10 fold and the “ΔTm (°C) TTA45” value [5] was 14.6 °C. For the same compound, the binding [6] was “weak”, the ΔTm [7] was 8.4 °C and the IC50 [8] was 4.38 ± 0.39 µM. For the same compound, the “ΔTm (°C) c-KIT1” value [9] was 6.6 °C, the ΔTm [10] was 6.6 °C and the binding [11] was “yes”. The “ΔTm (°C) TBA” value [12] was 4.7 °C.
